Source: US20070197599A1, “HYDROXYLAMINES AND DERIVATIVES AS ANTI-ANGIOGENIC AGENTS” (priority 2006, published 2007)
“And” between values parts separate entries of the source, which are not always exact repeats. Identical values can stand only once.

What was measured:
mouse V79 cells = conditions: Mitchell et al., 2000; cited from earlier work
[1] = In vitro stability of Compound 1 in human plasma; format: in vitro ADME; conditions: formed from OT-551 (Compound 1, 1000 ng/mL)
Procedure: The active metabolite of Compound 1 (Cyclopropanecarboxylic acid 1-hydroxy-2,2,6,6-tetramethyl-piperidin-4-yl ester) is TPH. The objective of this analysis was to determine the in vitro half-life of Compound 1 in rat, rabbit, dog, and human plasma under standardized incubation conditions.
Compound 1 was incubated with pooled rat, rabbit, dog, and human plasma for various times under standardized incubation conditions. Pre-labeled tubes containing pooled plasma from rats, rabbits, dogs, and humans were pre-incubated in a shaking 37° C. water bath. A Compound 1 solution was added to the tubes at a final concentration of 1000 ng/mL. Time zero samples (n=5) were immediately removed and transferred into tubes containing a stabilizer solution (DTPA, acetylcysteine and ascorbic acid), the LC/MS/MS assay internal standard and methanol. […] The tubes were vortexed, placed on ice, followed by centrifugation. One hundred-μL aliquots of the supernatant were transferred into HPLC sample vials. Additional tubes (n=5 at each time point) were incubated for 5, 10, 20, 30, 60, 120, and 240 minutes at 37° C. and thereafter processed. The amount of Compound 1 and TPH in each incubated sample was quantified using validated LC/MS/MS assays.

[2] = system: H2O2-induced angiogenesis in the CAM model; test: H2O2-induced angiogenesis in the chick chorioallantoic membrane (CAM) model; format: in vivo
Procedure: Neovascularization was examined by previously described methods (see references at the end of Example 5). Ten-day-old fertilized chicken eggs were incubated at 37° C. with 55% relative humidity. In the dark with the help of candling lamp and using a hypodermic needle a small hole was punctured in the shell covering the air sac. A second hole was punctured on the wider side of the egg above an avascular area of the embryonic membrane. An artificial air sac was created below the second hole by applying gentle vacuum to the first hole using a small rubber squeeze bulb. The vacuum caused the separation of chorioallantoic membrane (CAM) from the shell. An approximately 1.0 cm^2 widow was cut in the shell over the dropped CAM with the use of a mini drill. The underlying CAM was accessed through this small window.
Filter disks were punched using a small puncher from filter paper #1 (Whatman International, United Kingdom). Filter disks were soaked in 3 mg/ml cortisone acetate solution (95% ethanol and water) and air-dried under sterile condition. For inducing angiogenesis, sterile filter disks were saturated with bFGF (1 μg/ml) or other pro-angiogenesis factors and control disks were saturated with PBS without Calcium and Magnesium.
Using sterile forceps one filter/CAM was placed from the window. The window was sealed with Highland brand transparent tape. After 24 hr, 10-25 µl of test agent (inhibitor) was injected intravenously or added topically into the CAM membrane of bFGF or other pro-angiogenesis factors stimulated CAMs. • Control filter disks received PBS without Calcium and Magnesium. • After 48 hr, CAM tissue directly beneath filter disk was harvested and placed in a 35-mm Petri dish. Eight-Ten eggs/treatment group was used.
A pro-angiogenic agent (see Examples, below) was added to induce new blood vessel branches on the CAM of 10-day old embryos. Sterile disks of #1 filter paper (Whatman International, United Kingdom) were pre-treated with 3 mg/ml cortisone acetate, and air dried under sterile conditions. The disks were then suspended in PBS (Phosphate Buffered Saline) and placed on growing CAMs. Filters treated with TPH (TEMPOL-H) or TEMPOL and/or H2O2 or TPH and/or bFGF or VEGF were placed on the first day of the 3-day incubation.
Digital Images and Microscopic analysis of CAM sections: CAM sections from Petri dish were examined using SV6 stereomicroscope (Karl Zeiss) at 50× magnification. Digital images were captured using a 3-CCD color video camera system (Toshiba America, New York, N.Y.). These images were analyzed using Image-Pro Plus software (Media Cybernetics). The number of branch points in blood vessels within the circular region superimposed to the area of a filter disk was counted for each section. After incubation at 37° C. with 55% relative humidity for 3 days, the CAM tissue directly beneath each filter disk was resected from control and treated CAM samples. Tissues were washed three times with PBS. Sections were placed in a 35-mm Petri dish (Nalge Nunc; Rochester, N.Y.) and were examined under a SV6 stereomicroscope (Karl Zeiss; Thornwood, N.Y.) at 50× magnification. Digital images of CAM sections adjacent to filters were collected using a 3-CCD color video camera system (Toshiba America; New York, N.Y.) and analyzed with the Image-Pro Plus software (Media Cybernetics; Silver Spring, Md.). The number of vessel branch points contained in a circular region equal to the area of a filter disk was counted for each section. Percent inhibition data are expressed as the quotient of the experimental value minus the negative control value divided by the difference between the positive control value and the negative control value. One image was counted in each CAM preparation, and findings from eight CAM preparations were analyzed for each treatment condition. In addition, each experiment was performed three times. […]

[3] = Single-dose 10-minute intravenous infusion toxicokinetics in Sprague-Dawley rats; format: in vivo
Procedure: Blood for toxicokinetic evaluations was collected at pre-determined time points during and after the infusion.
All pharmacokinetic analyses were performed using Kinetica®, version 4.2 (Innaphase, Philadelphia, Pa.).
Cmax is the observed maximum plasma concentration
Tmax is the time Cmax is reached
T1/2 is the elimination half-life
The plasma concentrations were rounded to the nearest tenth of a ng/mL before the calculations. […] Nominal time points were used for all calculations.

[4] = H2O2 (88 μM, 30 ng) + 100 μg test agent
[5] = H2O2 (88 μM, 30 ng) + 200 μg test agent
[6] = H2O2 (88 μM, 30 ng) + 400 μg test agent
[7] = H2O2 (88 μM, 30 ng) + 800 μg test agent
[8] = after Compound 1 10 mg/kg iv infusion
[9] = after Compound 1 30 mg/kg iv infusion
[10] = after Compound 1 100 mg/kg iv infusion

Structure (SMILES): CC1(C)CC(O)CC(C)(C)N1O [TPH]
- radioprotection of mouse V79 cells (mouse V79 cells): did not provide any radioprotection
- Concentration of TPH in plasma ([1]; incubation 0 min): 48.76 ± 2.84 ng/mL
- Concentration of TPH in plasma ([1]; incubation 5 min): 186.71 ± 4.58 ng/mL
- Concentration of TPH in plasma ([1]; incubation 10 min): 241.99 ± 8.05 ng/mL
- Concentration of TPH in plasma ([1]; incubation 20 min): 310.10 ± 8.54 ng/mL
- Concentration of TPH in plasma ([1]; incubation 30 min): 365.53 ± 14.44 ng/mL
- Concentration of TPH in plasma ([1]; incubation 60 min): 449.85 ± 9.73 ng/mL
- Concentration of TPH in plasma ([1]; incubation 120 min): 519.12 ± 19.52 ng/mL
- Concentration of TPH in plasma ([1]; incubation 240 min): 501.39 ± 11.33 ng/mL
- inhibition of angiogenesis induced by super-maximal concentrations of H2O2 ([2]; CAM model, Tables 1A and 1B): effectively inhibited
- % Inhibition ± SD [2, 4]: 28.0 ± 13.6 %
- Branch pts ± SEM [2, 4]: 155 ± 14.4
- % Inhibition ± SD [2, 5]: 32.9 ± 8.4 %
- Branch pts ± SEM [2, 5]: 151.3 ± 15.3
- % Inhibition ± SD [2, 6]: 44.7 ± 6.6 %
- Branch pts ± SEM [2, 6]: 137.2 ± 6.9
- % Inhibition ± SD [2, 7]: 55.7 ± 7.2 %
- Branch pts ± SEM [2, 7]: 127.3 ± 6.4
- plasma levels of TPH at 4 hr post infusion ([3]; after Compound 1 10 mg/kg dose): still quantifiable
- AUC(0-4.167 hr) of TPH [3, 8]: 1694.8 ng·h/mL
- Cmax of TPH [3, 8]: 2481.7 ng/mL
- Tmax of TPH [3, 8]: 10 min
- T½ of TPH (elimination half-life) [3, 8]: 24 min
- Plasma concentration of TPH ([3]; after Compound 1 10 mg/kg iv infusion, 0.167 hr): 2481.7 ± 325.8 ng/mL
- Plasma concentration of TPH ([3]; after Compound 1 10 mg/kg iv infusion, 1.167 hr): 204.7 ± 85.6 ng/mL
- Plasma concentration of TPH ([3]; after Compound 1 10 mg/kg iv infusion, 2.167 hr): 25.2 ± 24.0 ng/mL
- Plasma concentration of TPH ([3]; after Compound 1 10 mg/kg iv infusion, 4.167 hr): 4.2 ± 10.3 ng/mL
- AUC of TPH ([3]; after Compound 1 10 mg/kg iv infusion, to time infinity): 1697.5 ng·h/mL
- Cmax of TPH [3, 9]: 8337.7 ng/mL
- Tmax of TPH [3, 9]: 10 min
- Plasma concentration of TPH ([3]; after Compound 1 30 mg/kg iv infusion, 0.167 hr): 8337.7 ± 2099.5 ng/mL
- Plasma concentration of TPH ([3]; after Compound 1 30 mg/kg iv infusion, 4.167 hr): 53.8 ± 29.7 ng/mL
- Cmax of TPH [3, 10]: 29020.8 ng/mL
- Tmax of TPH [3, 10]: 10 min
- Plasma concentration of TPH ([3]; after Compound 1 100 mg/kg iv infusion, 0.167 hr): 29020.8 ± 11713.7 ng/mL
- Plasma concentration of TPH ([3]; after Compound 1 100 mg/kg iv infusion, 4.167 hr): 160.0 ± 97.5 ng/mL
- Tmax of TPH ([3]; after Compound 1 200 mg/kg iv infusion): 10 min
- Plasma concentration of TPH ([3]; after Compound 1 200 mg/kg iv infusion, 0.167 hr): 60802.2 ± 8922.5 ng/mL
- Plasma concentration of TPH ([3]; after Compound 1 200 mg/kg iv infusion, 4.167 hr): 524.5 ± 237.0 ng/mL
- Cmax of TPH ([3]; after Compound 1 200 mg/kg iv infusion, 200 mg/kg): 60802.1 ng/mL and 60802.2 ng/mL
- levels of TPH at four hours after terminating the infusion relative to concentrations immediately after terminating the infusions ([3]; after Compound 1 30, 100 and 200 mg/kg): less than 1%
